Where “and” joins values, the source holds several entries; their conditions need not be identical. Equal values may be shown once. Inconclusive results and toxic doses are left out. The calls were made as follows: active = survival T/C of 150% or more; inactive = T/C below 125% in these data.
Tested on: BDF1 mice, B16 melanoma ip, median survival T/C
Assay: NCI In Vivo Anticancer Drug Screen. Data for tumor model B16 Melanoma (intraperitoneal) in B6D2F1 (BDF1) mice
Conditions: endpoint: median survival time, higher = longer survival
Method in brief: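 Values are ratios of treated (T) to vehicle-control (C) measurements of survival or tumor size in tumor-bearing mice.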

[1] = dose: 6.25 mg/kg/injection, schedule: Q01DX009 (ip), vehicle: saline with Tween-80
[2] = dose: 12.5 mg/kg/injection, schedule: Q01DX009 (ip), vehicle: saline with Tween-80
[3] = dose: 25.0 mg/kg/injection, schedule: Q01DX009 (ip), vehicle: saline with Tween-80
[4] = dose: 50.0 mg/kg/injection, schedule: Q01DX009 (ip), vehicle: saline with Tween-80
[5] = dose: 100.0 mg/kg/injection, schedule: Q01DX009 (ip), vehicle: saline with Tween-80
[6] = dose: 200.0 mg/kg/injection, schedule: Q01DX009 (ip), vehicle: saline with Tween-80
[7] = dose: 400.0 mg/kg/injection, schedule: Q01DX009 (ip), vehicle: saline with Tween-80
[8] = dose: 100.0 mg/kg/injection, schedule: Q01DX009 (ip), vehicle: Klucel (hydroxypropylcellulose) (HPC)
[9] = dose: 200.0 mg/kg/injection, schedule: Q01DX009 (ip), vehicle: Klucel (hydroxypropylcellulose) (HPC)
[10] = dose: 400.0 mg/kg/injection, schedule: Q01DX009 (ip), vehicle: Klucel (hydroxypropylcellulose) (HPC)
[11] = dose: 2.5 mg/kg/injection, schedule: Q01DX009 (ip), vehicle: Klucel (hydroxypropylcellulose) (HPC)
[12] = dose: 5.0 mg/kg/injection, schedule: Q01DX009 (ip), vehicle: Klucel (hydroxypropylcellulose) (HPC)
[13] = dose: 6.25 mg/kg/injection, schedule: Q01DX009 (ip), vehicle: saline
[14] = dose: 10.0 mg/kg/injection, schedule: Q01DX009 (ip), vehicle: Klucel (hydroxypropylcellulose) (HPC)

Measured: T/C

Cc1c(Cl)cccc1NC(=O)c1ccc(Cl)cc1Cl
inactive: dose: 100.0 mg/kg/injection, schedule: Q04DX003 (ip), vehicle: Klucel (hydroxypropylcellulose) (HPC) 95 % of control | dose: 200.0 mg/kg/injection, schedule: Q04DX003 (ip), vehicle: Klucel (hydroxypropylcellulose) (HPC) 102 % of control | dose: 400.0 mg/kg/injection, schedule: Q04DX003 (ip), vehicle: Klucel (hydroxypropylcellulose) (HPC) 100 % of control

Cc1cc(=O)n2c3c(c4c(cc13)c(CN(C)C)cc(=O)n4C)OC2
inactive: [1] 103 % of control | [2] 101 % of control | [3] 113 % of control | [4] 117 % of control

O=C[C@@H](CO)O[C@H](C=O)n1cnc2c(=O)[nH]cnc21
inactive: dose: 37.5 mg/kg/injection, schedule: Q01DX009 (ip), vehicle: saline 95 % of control | dose: 75.0 mg/kg/injection, schedule: Q01DX009 (ip), vehicle: saline 95 % of control | dose: 150.0 mg/kg/injection, schedule: Q01DX009 (ip), vehicle: saline 88 % of control

CC(=O)C(Cl)C(=O)c1c(C)[nH]n(-c2ccccc2)c1=O (stereo not given)
inactive: dose: 25.0 mg/kg/injection, schedule: Q01DX009 (ip), vehicle: Klucel (hydroxypropylcellulose) (HPC) 108 % of control | dose: 50.0 mg/kg/injection, schedule: Q01DX009 (ip), vehicle: Klucel (hydroxypropylcellulose) (HPC) 98 % of control

COC(=O)c1cc2cc3c(c(O)c2c(=O)o1)OC1(Cc2c(O)c4c(c(O)c2O1)C(=O)C(OC)CC4=O)CC3O (stereo not given)
inactive: dose: 3.13 mg/kg/injection, schedule: Q01DX009 (ip), vehicle: saline with Tween-80 91 % of control | [1] 91 % of control and 93 % of control | [2] 86 % of control | [3] 86 % of control and 88 % of control

O=Cc1cc2c(cc1Cl)OCO2
inactive: [5] 107 % of control | [6] 101 % of control | [7] 99 % of control

COC(=O)/C=C/C=C(c1ccccc1)c1ccccc1
inactive: [4] 94 % of control | [5] 100 % of control | [6] 94 % of control | [7] 94 % of control

O=CNC(Cc1cnc[nH]1)C(=O)O (stereo not given)
inactive: [4] 102 % of control | [5] 100 % of control | [6] 103 % of control | [7] 100 % of control

[Cl][Ge]([c]1ccccc1)([c]1ccccc1)[c]1ccccc1
inactive: [8] 96 % of control | [9] 96 % of control | [10] 100 % of control

O=CNNC=O
inactive: [5] 86 % of control | [6] 95 % of control | [7] 90 % of control

CCC1CCCCC1=O (stereo not given)
inactive: dose: 44.0 mg/kg/injection, schedule: Q01DX009 (ip), vehicle: saline with Tween-80 97 % of control | dose: 67.0 mg/kg/injection, schedule: Q01DX009 (ip), vehicle: saline with Tween-80 95 % of control | [5] 100 % of control | dose: 150.0 mg/kg/injection, schedule: Q01DX009 (ip), vehicle: saline with Tween-80 102 % of control

C=C1C(=O)O[C@@H]2[C@H](O)[C@@H](C)[C@@H]3C=CC(=O)[C@@]3(C)[C@H](OC(=O)C=C(C)C)[C@H]12
inactive: [11] 104 % of control | dose: 3.12 mg/kg/injection, schedule: Q01DX009 (ip), vehicle: saline 102 % of control | [12] 119 % of control | [13] 86 % of control | [14] 113 % of control

COc1ccc([I+]c2ccc(OC)cc2)cc1
inactive: dose: 0.75 mg/kg/injection, schedule: Q01DX009 (ip), vehicle: saline with Tween-80 95 % of control | dose: 1.5 mg/kg/injection, schedule: Q01DX009 (ip), vehicle: saline with Tween-80 95 % of control | dose: 3.0 mg/kg/injection, schedule: Q01DX009 (ip), vehicle: saline with Tween-80 100 % of control

CC1(C)CC[C@H](C2=CC(=O)c3c(O)ccc(O)c3C2=O)O1
inactive: dose: 1.25 mg/kg/injection, schedule: Q01DX009 (ip), vehicle: Klucel (hydroxypropylcellulose) (HPC) 99 % of control | [11] 97 % of control | [12] 97 % of control | [14] 92 % of control | dose: 20.0 mg/kg/injection, schedule: Q01DX009 (ip), vehicle: Klucel (hydroxypropylcellulose) (HPC) 93 % of control

O=[N+]([O-])c1ccc(S(=O)(=O)O)c([N+](=O)[O-])c1.[Ag]
inactive: dose: 12.5 mg/kg/injection, schedule: Q04DX003 (ip), vehicle: DMSO 86 % of control | dose: 25.0 mg/kg/injection, schedule: Q04DX003 (ip), vehicle: DMSO 86 % of control

FC(F)(F)c1ccc2c(c1)N(CCCN1CCN(CCN3CCCCC3)CC1)c1ccccc1S2
inactive: dose: 0.78 mg/kg/injection, schedule: Q01DX009 (ip), vehicle: saline 100 % of control | dose: 1.56 mg/kg/injection, schedule: Q01DX009 (ip), vehicle: saline 105 % of control | [13] 97 % of control

Cc1ccc(C#N)s1
inactive: dose: 3.12 mg/kg/injection, schedule: Q01DX009 (ip), vehicle: other 104 % of control | dose: 6.25 mg/kg/injection, schedule: Q01DX009 (ip), vehicle: other 109 % of control | dose: 12.5 mg/kg/injection, schedule: Q01DX009 (ip), vehicle: other 101 % of control | dose: 25.0 mg/kg/injection, schedule: Q01DX009 (ip), vehicle: other 108 % of control

O=C(OC1C=CC2CCC1C2)c1ccc([N+](=O)[O-])cc1 (stereo not given)
inactive: [4] 91 % of control | [5] 96 % of control | [6] 93 % of control

Nc1ccn([C@@H](C=O)O[C@@H](C=O)CO)c(=O)n1
inactive: [13] 100 % of control and 112 % of control | dose: 12.5 mg/kg/injection, schedule: Q01DX009 (ip), vehicle: saline 101 % of control and 102 % of control | dose: 25.0 mg/kg/injection, schedule: Q01DX009 (ip), vehicle: saline 91 % of control and 109 % of control | dose: 50.0 mg/kg/injection, schedule: Q01DX009 (ip), vehicle: saline 99 % of control and 103 % of control | dose: 100.0 mg/kg/injection, schedule: Q01DX009 (ip), vehicle: saline 107 % of control and 112 % of control | dose: 200.0 mg/kg/injection, schedule: Q01DX009 (ip), vehicle: saline 113 % of control

CC[C@H]1CN2CCc3cc(OC)c(OC)cc3[C@@H]2C[C@@H]1C[C@H]1NCCc2cc(O)c(OC)cc21
inactive: dose: 2.0 mg/kg/injection, schedule: Q01DX009 (ip), vehicle: saline + alcohol 118 % of control | dose: 2.0 mg/kg/injection, schedule: Q01DX009 (ip), vehicle: saline 108 % of control and 120 % of control | dose: 8.0 mg/kg/injection, schedule: Q01DX009 (ip), vehicle: saline + alcohol 113 % of control | dose: 8.0 mg/kg/injection, schedule: Q04DX003 (ip), vehicle: alkali diluted with saline 117 % of control | dose: 16.0 mg/kg/injection, schedule: Q04DX003 (ip), vehicle: alkali diluted with saline 108 % of control | dose: 32.0 mg/kg/injection, schedule: Q04DX003 (ip), vehicle: alkali diluted with saline 122 % of control

Oc1ccc(C2CCc3ccccc32)cc1 (stereo not given)
inactive: [8] 96 % of control | [9] 96 % of control | [10] 100 % of control

CN(C)c1ccc(C=C2c3ccccc3-c3ccccc32)cc1
inactive: [8] 106 % of control | [9] 103 % of control | [10] 106 % of control

From PubChem BioAssay AID192 (DTP/NCI, 2004)
